Experimental data published in patent publication US20200283807A1, “METHOD AND CELL LINE FOR PRODUCTION OF PHYTOCANNABINOIDS AND PHYTOC[…] IN YEAST” (Hyasynth Biologicals Inc., priority 2017, published 2020).

How the values were obtained:
[1] = tested on: S. cerevisiae; assay: Effect of hexanoic acid on growth of S. cerevisiae strain HB13 (A600 of culture); format: cell-based, Saccharomyces cerevisiae; settings: for growth (A600): HB13-HA, 0.5 mM hexanoic acid
Procedure: (§1) Yeast cultures were grown in overnight cultures with selective media to provide starter cultures. The resulting starter cultures were then used to inoculate triplicate 50 ml cultures to an optical density at having an absorption at 600 nm (“A600”) of 0.1.
HB13 was cultured in YNB+2% glucose+1.6 g/L 4DO*+0.5 mM hexanoic acid. Hexanoic acid was added at 36 hours of culture. The hexanoic acid was added to separate culture samples at concentrations of 0, 0.5, 1.0 and 3.0 mM. Hexanoic acid is toxic to S. cerevisiae. […] The magnitude of the decrease in S. cerevisiae growth corresponds to the concentration of hexanoic acid in the growth media. The A600 value of culture suspensions quantifies the growth rate, which is shown at hexanoic acid concentrations of 0, 0.5, 1.0 and 3.0 mM in FIG. 12.
(§2) In the presence of 0.5 mM hexanoic acid, HB13 and HB37 were grown for 96 hours with samples taken at the 24h, 36h, 48h, 60, 72h, 84h and 96h points. In the absence of hexanoic acid, HB13 and HB84 were grown and a single time point was taken at 72 hours. HB13 was used as a control in both experiments. The growth media are described above in relation to Tables 8 and 9.

[2] = tested on: S. cerevisiae; assay: Growth of S. cerevisiae strain HB37 in the presence of hexanoic acid (A600 of culture); format: cell-based, Saccharomyces cerevisiae; settings: HB37-HA, 0.5 mM hexanoic acid
Procedure: as §1, §2
FIGS. 13 to 15 each show the A600 values of the HB37 culture listed in Table 10 (dashed lines with triangle data points).

SMILES: CCCCCC(=O)O [hexanoic acid]
- growth (A600) ([1]; 24 h): 5.33
- growth (A600) ([1]; 36 h): 5.80
- growth (A600) ([1]; 48 h): 4.67
- growth (A600) ([1]; 60 h): 6.07
- growth (A600) ([1]; 72 h): 8.96
- growth (A600) ([1]; 84 h): 7.23
- growth (A600) ([1]; 96 h): 8.28
- effect of hexanoic acid supplementation on growth of S. cerevisiae (A600) ([1]; HB13, hexanoic acid added at 36 hours at 0, 0.5, 1.0 and 3.0 mM, FIG. 12): Decreased growth
- growth (A600) ([2]; 24 h): 3.33
- growth (A600) ([2]; 36 h): 3.43
- growth (A600) ([2]; 48 h): 3.33
- growth (A600) ([2]; 60 h): 3.53
- growth (A600) ([2]; 72 h): 4.48
- growth (A600) ([2]; 84 h): 4.13
- growth (A600) ([2]; 96 h): 4.33
